Results as given in patent publication US20100184708A1, “USE OF GLY-PRO-GLU-OH (GPE) AS A THERAPEUTIC AGENT” (priority 2007, published 2010).

Tests used:
[1] = system: HIV-1IIIB; assay: HIV-1 antiviral assay (CPE reduction); type: cell-based; conditions: peptide 10 micrograms per ml; 6 days post-infection; MTS
[2] = system: CEM-SS cells; assay: Cytotoxicity in the HIV-1 assay (MTS cell viability); conditions: peptide 10 micrograms per ml, MTS
[3] = Cytotoxicity in the HBV assay (dye uptake cell viability); type: cell-based; conditions: human, HepG2-2.2.15 cells, peptide 10 micrograms per ml, % cell control
Protocol: HepG2-2.2.15 cells were plated in 96-well microtiter plates. After 16-24 hours the confluent monolayer of HepG2-2.2.15 cells was washed and the medium was replaced with complete medium containing test peptide—10 micrograms per ml—in duplicate. Lamivudine (3TC) was used as the positive control, while media alone was added to the cells as a negative control (virus control). Three days later the culture medium was replaced with fresh medium containing the peptide. Six days following the initial administration of the peptide, the cell culture supernatants was collected, treated with pronase and DNAse and then used in a real-time quantitative TaqMan PCR assay. The PCR-amplified HBV DNA was detected in real-time by monitoring increases in fluorescence signals that result from the exonucleolytic degradation of a quenched fluorescence probe molecule that hybridizes to the mplified HBV DNA. For each PCR amplification, a standard curve was simultaneously generated using dilutions of purified HBV DNA. Antiviral activity was calculated from the reduction in HBV DNA levels (% virus control). A novel dye uptake assay was then employed to measure cell viability, which is used to calculate toxicity (% cell control).

[4] = Cytotoxicity testing in MRC-5 cells; type: cell-based, human; conditions: human, 6 days incubation, CellTiter 96, read-out: % Cell viability
[5] = system: Pseudomonas aeruginosa; type: cell-based; conditions: 5 micrograms per ml
[6] = system: Streptococcus pneumoniae; type: cell-based; conditions: 5 micrograms per ml
[7] = system: MRSA; conditions: 5 micrograms per ml
[8] = Cytotoxicity in the HIV-1 assay (MTS cell viability); conditions: human, CEM-SS cells
[9] = system: MRC-5 cells; assay: Cytotoxicity testing in MRC-5 cells; type: cell-based, human; conditions: 6 days incubation, CellTiter 96

Cc1cn([C@H]2C[C@H](N=[N+]=[N-])[C@@H](CO)O2)c(=O)[nH]c1=O [AZT, reference compound]
% CPE reduction in HIV-1 infected CEM-SS cells [1]: 99% | % Cell viability [2]: 97%

NCC(=O)N1CCC[C@H]1C(=O)N[C@@H](CCC(=O)O)C(=O)O [IGF-I (1-3), Gly-Pro-Glu-OH]
viability at 144 h, 10 micrograms per ml [3]: 98.2% | viability at 144 h [4]: 100% | % inhibition [5]: 0.0% | % inhibition [6]: 0.0% | % inhibition [7]: 0.0% | viability at 10 micrograms per ml [8]: 100%

Nc1nc(O)c2ncn(COC(CO)CO)c2n1 [Ganciclovir, reference compound]
% Cell viability [9]: 100%
